Experimental findings from patent publication US6358947B1 (American Home Products Corporation, priority 1999, dated 2002) are described below.

Where two headings read alike, the source gives them in different places.

Common to all, as to assay type: cell-based
The target in assay [1] is T1, hER (Homo sapiens, UniProt P03372).
T1 sequence (P03372 1-595): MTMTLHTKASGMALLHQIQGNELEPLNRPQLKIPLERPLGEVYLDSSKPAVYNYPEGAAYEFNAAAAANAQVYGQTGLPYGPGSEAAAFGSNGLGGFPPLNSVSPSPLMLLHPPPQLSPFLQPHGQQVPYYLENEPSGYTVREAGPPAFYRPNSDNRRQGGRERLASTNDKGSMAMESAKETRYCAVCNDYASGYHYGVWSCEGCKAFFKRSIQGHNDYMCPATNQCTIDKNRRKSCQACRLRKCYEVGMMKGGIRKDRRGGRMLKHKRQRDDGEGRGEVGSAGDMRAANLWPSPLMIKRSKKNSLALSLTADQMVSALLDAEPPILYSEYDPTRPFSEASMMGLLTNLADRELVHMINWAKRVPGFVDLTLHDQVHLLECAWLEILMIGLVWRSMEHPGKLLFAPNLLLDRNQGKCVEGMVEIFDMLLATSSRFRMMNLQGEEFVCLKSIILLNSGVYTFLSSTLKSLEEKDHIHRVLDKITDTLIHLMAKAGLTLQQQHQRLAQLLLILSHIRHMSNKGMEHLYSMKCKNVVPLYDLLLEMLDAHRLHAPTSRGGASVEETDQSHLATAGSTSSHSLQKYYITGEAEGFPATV
Kind of assay: Cotransfection assay, ER antagonist. The conditions noted are these: read-out: ER Potency Antag.
Description: (§1) The cotransfection assay provides a method for identifying functional agonists and partial agonists that mimic, or antagonists that inhibit, the effect of native hormones, and for quantifying their activity for responsive intracellular receptor (IR) proteins. In this regard, the cotransfection assay mimics an in vivo system in the laboratory. Importantly, activity in the cotransfection assay correlates very well with known in vivo activity, such that the cotransfection assay functions as a qualitative and quantitative predictor of a tested compound's in vivo pharmacology.
(§2) In the cotransfection assay, a cloned cDNA for an IR (e.g., human PR, AR or GR) under the control of a constitutive promoter (e.g., the SV 40 promoter) is introduced by transfection (a procedure to induce cells to take up foreign genes) into a background cell substantially devoid of endogenous IRs. This introduced gene directs the recipient cells to make the IR protein of interest. A second gene is also introduced (cotransfected) into the same cells in conjunction with the IR gene. This second gene, comprising the cDNA for a reporter protein, such as firefly luciferase (LUC), is controlled by an appropriate hormone responsive promoter containing a hormone response element (HRE). This reporter plasmid functions as a reporter for the transcription-modulating activity of the target IR. Thus, the reporter acts as a surrogate for the products (mRNA, then protein) normally expressed by a gene under control of the target receptor and its native hormone.
(§3) The cotransfection assay can detect small molecule agonists or antagonists of target IRs. Exposing the transfected cells to an agonist ligand compound increases reporter activity in the transfected cells. This activity can be conveniently measured, e.g., by increasing luciferase production, which reflects compound-dependent, IR-mediated increases in reporter transcription. […] Increasing concentrations of a suspected antagonist will decrease the reporter signal (e.g., luciferase production). The cotransfection assay is therefore useful to detect both agonists and antagonists of specific IRs. Furthermore, it determines not only whether a compound interacts with a particular IR, but whether this interaction mimics (agonizes) or blocks (antagonizes) the effects of the native regulatory molecules on target gene expression, as well as the specificity and strength of this interaction.

The target in another assay is T2, hMR (Homo sapiens, UniProt P08235).
T2 sequence (P08235 1-984): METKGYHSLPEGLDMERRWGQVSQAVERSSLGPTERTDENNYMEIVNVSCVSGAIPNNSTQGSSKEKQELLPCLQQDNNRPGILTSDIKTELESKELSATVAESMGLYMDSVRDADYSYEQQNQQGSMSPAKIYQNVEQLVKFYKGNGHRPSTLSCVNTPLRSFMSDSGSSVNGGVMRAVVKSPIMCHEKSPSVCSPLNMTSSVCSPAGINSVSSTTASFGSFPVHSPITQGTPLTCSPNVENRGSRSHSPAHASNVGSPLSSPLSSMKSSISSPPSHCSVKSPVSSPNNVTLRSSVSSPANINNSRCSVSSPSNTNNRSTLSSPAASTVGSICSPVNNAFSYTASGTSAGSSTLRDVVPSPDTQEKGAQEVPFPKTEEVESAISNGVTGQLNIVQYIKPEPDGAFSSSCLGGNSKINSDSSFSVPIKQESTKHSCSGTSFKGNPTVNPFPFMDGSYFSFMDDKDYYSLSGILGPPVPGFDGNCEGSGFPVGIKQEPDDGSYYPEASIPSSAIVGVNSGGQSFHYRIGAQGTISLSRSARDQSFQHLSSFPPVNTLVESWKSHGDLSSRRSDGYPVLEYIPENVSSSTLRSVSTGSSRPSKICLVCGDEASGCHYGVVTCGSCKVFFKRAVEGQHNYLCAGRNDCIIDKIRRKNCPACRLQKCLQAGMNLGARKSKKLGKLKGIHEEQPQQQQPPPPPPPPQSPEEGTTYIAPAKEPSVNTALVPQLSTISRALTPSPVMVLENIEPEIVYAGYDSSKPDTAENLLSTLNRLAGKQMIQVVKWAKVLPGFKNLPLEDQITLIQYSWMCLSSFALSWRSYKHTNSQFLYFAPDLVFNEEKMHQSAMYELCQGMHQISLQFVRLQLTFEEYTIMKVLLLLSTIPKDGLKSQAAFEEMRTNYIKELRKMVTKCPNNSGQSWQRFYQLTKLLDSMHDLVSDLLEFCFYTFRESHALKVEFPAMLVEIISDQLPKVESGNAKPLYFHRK
Kind of assay: Cotransfection assay, MR antagonist. The conditions noted are these: read-out: MR Potency Antag.

Assay [2] deals with T1, hER. Kind of assay: Cotransfection assay, ER agonist. The conditions noted are these: read-out: ER Potency Agon.
Description: as §1, §2, §3
Assay [3] concerns the target T3, human PR (Homo sapiens, UniProt P06401).
T3 sequence (P06401 1-933): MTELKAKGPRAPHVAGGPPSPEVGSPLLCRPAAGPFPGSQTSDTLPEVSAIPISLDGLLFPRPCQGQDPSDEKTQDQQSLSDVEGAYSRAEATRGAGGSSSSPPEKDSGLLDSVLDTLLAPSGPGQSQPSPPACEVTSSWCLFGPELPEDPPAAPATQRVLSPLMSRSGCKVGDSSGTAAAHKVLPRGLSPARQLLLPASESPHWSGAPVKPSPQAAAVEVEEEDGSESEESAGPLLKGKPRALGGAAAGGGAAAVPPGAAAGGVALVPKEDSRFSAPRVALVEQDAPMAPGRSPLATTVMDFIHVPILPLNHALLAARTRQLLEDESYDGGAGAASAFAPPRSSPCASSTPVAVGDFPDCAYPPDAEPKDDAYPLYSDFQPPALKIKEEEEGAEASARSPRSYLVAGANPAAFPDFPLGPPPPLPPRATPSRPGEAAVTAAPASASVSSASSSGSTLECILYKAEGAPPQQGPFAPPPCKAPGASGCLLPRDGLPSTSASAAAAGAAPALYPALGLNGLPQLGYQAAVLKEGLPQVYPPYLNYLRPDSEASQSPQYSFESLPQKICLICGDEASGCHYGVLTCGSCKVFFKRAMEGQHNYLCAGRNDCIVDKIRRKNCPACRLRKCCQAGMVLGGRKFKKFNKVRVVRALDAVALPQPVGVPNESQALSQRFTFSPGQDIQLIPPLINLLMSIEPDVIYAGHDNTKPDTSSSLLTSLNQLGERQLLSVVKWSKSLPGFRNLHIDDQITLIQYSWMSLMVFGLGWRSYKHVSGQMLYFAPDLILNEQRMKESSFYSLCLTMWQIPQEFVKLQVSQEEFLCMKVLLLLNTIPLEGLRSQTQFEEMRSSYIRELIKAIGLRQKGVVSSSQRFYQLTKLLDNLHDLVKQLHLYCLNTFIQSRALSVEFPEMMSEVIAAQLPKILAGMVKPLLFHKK
Description: Cotransfection assay, PR agonist, CV-1 cells. The conditions noted are these: for PR Agonist CV-1 Cells Efficacy: percent maximal response relative to reference agonist.
Description: as §1, §2, §3

The target of assay [4] is T3, human PR. Kind of assay: Cotransfection assay, PR antagonist, CV-1 cells. The conditions noted are these: for IC50: Table 1, read-out: PR Antagonist CV-1 Cells Potency; for PR Antagonist CV-1 Cells Efficacy: percent maximal response relative to reference antagonist.
Description: as §1, §2, §3
Where [5] appears, read: CV-1 cells, Table 1, read-out: PR Agonist CV-1 Cells Potency.

Description for hMR: as §1, §2, §3

As to `CC1(C)OC(=O)Nc2ccc3c(c21)COc1c(F)cccc1-3` [Compound 14, 7-Fluoro-4,4-dimethyl-5H-chromeno[3,4-f]-1,3-benzo[d]oxazin-2-one], the IC50 was over 10000 nM at hER [1], over 10000 nM on hMR and 25 nM at human PR [4]. For the same molecule, the values for the EC50 on hER [2] and at human PR [3] (setting [5]) were over 10000 nM and 2500 nM, respectively. Moreover, on human PR [3] (CV-1 cells), the “PR Agonist CV-1 Cells Efficacy” value is given as 30%. The “PR Antagonist CV-1 Cells Efficacy” value on human PR [4] was determined as 95%.
`CC1(C)OC(=O)Nc2ccc3c(c21)COc1c(F)cc(Br)cc1-3` [Compound 20, 9-Bromo-7-fluoro-4,4-dimethyl-5H-chromeno[3,4-f]-1,3-benzo[d]oxazin-2-one]: the IC50 on hER [1] was over 10000 nM; on hMR it was over 10000 nM; at human PR [4], 20 nM. The EC50 is over 10000 nM on hER [2] and 500 nM on human PR [3] (setting [5]). Besides, the “PR Agonist CV-1 Cells Efficacy” value on human PR [3] (CV-1 cells) is recorded as 30%. Besides, the “PR Antagonist CV-1 Cells Efficacy” value on human PR [4] was determined as 80%.
On to `CC1(C)OC(=O)Nc2ccc3c(c21)COc1c(F)cc(C=O)cc1-3` [Compound 24, 7-fluoro-9-formyl-4,4-dimethyl-5H-chromeno[3,4-f]-1,3-benzo[d]oxazin-2-one], for which the values for the IC50 at hER [1], on hMR and on human PR [4] were over 10000 nM, over 10000 nM and 98 nM, respectively. The EC50 at hER [2] was over 10000 nM; on human PR [3] (setting [5]), over 10000 nM; at human PR [3] (Table 2, read-out: PR Potency Agon) it was over 10000 nM. Besides, at human PR [3] (CV-1 cells), the “PR Agonist CV-1 Cells Efficacy” value was “na (na = not active (i.e. efficacy of <20 and potency of >10,000))”. For the same molecule, the “PR Antagonist CV-1 Cells Efficacy” value on human PR [4] came to 84%.
Take `CC1(C)OC(=O)Nc2ccc3c(c21)COc1c(F)cc(C=NO)cc1-3` [Compound 25, 7-fluoro-9-hydroxyiminomethyl-4,4-dimethyl-5H-chromeno[3,4-f]-1,3-benzo[d]oxazin-2-one]: the IC50 on hER [1] is over 10000 nM; at hMR it was over 10000 nM; at human PR [4], 23 nM. In addition, the figures for the EC50 on hER [2] and at human PR [3] (setting [5]) were over 10000 nM and 623 nM, respectively. The “PR Agonist CV-1 Cells Efficacy” value at human PR [3] (CV-1 cells) came to 46%. The “PR Antagonist CV-1 Cells Efficacy” value on human PR [4] is on record as 87%.
Regarding `CC1(C)OC(=O)Nc2ccc3c(c21)COc1c(F)cc(C#N)cc1-3` [Compound 26, 9-cyano-7-fluoro-4,4-dimethyl-5H-chromeno[3,4-f]-1,3-benzo[d]oxazin-2-one], the IC50 on hER [1] was over 10000 nM; on hMR, over 10000 nM; at human PR [4], 16 nM. Moreover, the results for the EC50 on hER [2] and on human PR [3] (setting [5]) were over 10000 nM and 1000 nM, respectively. In addition, the “PR Agonist CV-1 Cells Efficacy” value on human PR [3] (CV-1 cells) was determined as 60%. Also, the “PR Antagonist CV-1 Cells Efficacy” value on human PR [4] turned out to be 68%.
